Data from patent US4103082A, “Aminocyclitol derivatives and process for producing the same” (priority 1975, dated 1978).

Test system: E. coli K-12
Assay: paper disk method, inhibitory zone diameter
Format: cell-based
Details: Escherichia coli, K12, read-out: inhibitory zone diameter; for zone of inhibition at 7.8 µg/mL: 7.8 γ/ml; for zone of inhibition at 15.6 µg/mL: 15.6 γ/ml; for zone of inhibition at 31.2 µg/mL: 31.2 γ/ml; for zone of inhibition at 62.5 µg/mL: 62.5 γ/ml; for zone of inhibition at 125 µg/mL: 125 γ/ml; for zone of inhibition at 250 µg/mL: 250 γ/ml; for zone of inhibition at 500 µg/mL: 500 γ/ml; for zone of inhibition at 1000 µg/mL: 1000 γ/ml; for zone of inhibition at 2000 µg/mL: 2000 γ/ml

SMILES | zone of inhibition at 7.8 µg/mL [mm] | zone of inhibition at 15.6 µg/mL [mm] | zone of inhibition at 31.2 µg/mL [mm] | zone of inhibition at 62.5 µg/mL [mm] | zone of inhibition at 125 µg/mL [mm] | zone of inhibition at 250 µg/mL [mm] | zone of inhibition at 500 µg/mL [mm] | zone of inhibition at 1000 µg/mL [mm] | zone of inhibition at 2000 µg/mL [mm]
NC[C@H]1O[C@H](O[C@H]2C[C@@H](O)[C@H](N)C[C@@H]2N)[C@H](N)[C@@H](O)[C@@H]1O [5-Deoxyneamine, 5-deoxyneamine] | 0 | 0 | 12.1 | 14.7 | 17.2 | 18.7 | 22 | 24.5 | 26.6
NC[C@H]1O[C@H](O[C@H]2[C@H](O)C[C@H](N)C[C@@H]2N)[C@H](N)[C@@H](O)[C@@H]1O [6-Deoxyneamine, 6-deoxyneamine] | 0 | 11.2 | 12.9 | 16 | 18.2 | 20.3 | 21.9 | 25 | 26.7
